# Measured values as given in US7973024B2, “24-sulfoximine vitamin D3 compounds” (Cyctochroma Inc., priority 2002, dated 2011).
# Assays:
# [1] = target: T1, VDR (Homo sapiens, UniProt P11473); test: VDR binding assay; conditions: B50: displacement of 50 percent [3H]-1,25(OH)2D3 from human recombinant VDR
# T1 construct: purchased Biomol
# T1 sequence (P11473 1-427): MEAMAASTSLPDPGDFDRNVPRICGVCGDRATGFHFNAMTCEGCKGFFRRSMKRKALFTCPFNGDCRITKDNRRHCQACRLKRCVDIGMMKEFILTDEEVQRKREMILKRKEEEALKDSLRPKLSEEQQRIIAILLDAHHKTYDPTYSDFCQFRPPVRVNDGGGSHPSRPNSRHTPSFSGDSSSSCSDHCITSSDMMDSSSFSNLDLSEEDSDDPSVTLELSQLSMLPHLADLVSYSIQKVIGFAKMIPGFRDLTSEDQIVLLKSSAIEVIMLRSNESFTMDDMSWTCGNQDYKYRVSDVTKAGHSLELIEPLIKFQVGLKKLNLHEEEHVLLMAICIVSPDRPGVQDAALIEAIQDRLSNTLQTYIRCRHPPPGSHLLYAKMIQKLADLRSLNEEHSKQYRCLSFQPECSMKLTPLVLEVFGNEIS
# Experimental: 1. VDR 9.4 pmol/μl (human, recombinant, Biomol).
# 4. TEK300 • Tris-HCI 50 mM • EDTA 1.5 mM • KCI 300 mM Adjust pH to 7.4 (25° C.)
# 3. Preparation of 1.25(OH)2D3 and test compounds in ethanol
# 1 μl stock VDR in 2.5 ml TEDK300/Gelatin solution (500 μl/tube), (keep on ice)
# • Label tubes according to the following chart, each in triplicate:
# • Mixed all tubes via vortex and incubated at room temperature for 1 hour. Added 10 μL of 3H-1,25(OH)2D3 Working Dilution, mixed by vortex and incubated at room temperature for 1 hour 2. Sample processing • Thirty minutes before addition, put Charcoal/Dextran Solution on ice with continuous mixing. Added […] of Charcoal/Dextran Solution to each tube, mixed well and incubated on ice for 30 minutes. Centrifuged @ 2000 rpm for 10 minutes at 4° C. 3. Counting • Pipetted 100 μL of the upper, aqueous phase to a 24 well scintillation counting plate and added 600 μL scintillation fluid per well, covered and mixed well. Counted the plate using a scintillation counter for 5 min/sample. (iv) Calculations: • The amount of 1,25(OH)2D3 to displace 50 percent [^3H]-1,25(OH)2D3 from VDR was calculated as B50 for 1,25(OH)2D3. The VDR binding of other compounds was calculated as B50 relative to a value of 1 for 1,25(OH)2D3.
# [2] = system: normal human epidermal keratinocytes (NHEK); test: Human epidermal keratinocyte proliferation assay; assay type: cell-based; conditions: together with calcitriol, three days, [3H]-thymidine 18 h
# Experimental: 1. HEK Cell Media • Supplemented KGM media with additional reagents provided in the bullet kit as per supplier's instructions. • Added calcium chloride to final concentration of 0.3 mM.
# 2. Calcitriol Dilutions • Stock: Calcitriol (1 mM)
# 3. Substrate Dilutions • Stock: substrate (0.1 mM)
# 1. Cell Culture • Thawed one vial of HEK cells containing at least 500 K, and divided into 5 25 cm^2 flasks with 5 ml HEK cell media. 24 h later, removed media and replenished with 5 ml fresh media. Changed media again 48 h later.
# 2. Preparation of Cell Suspension • On the day of the assay, washed the monolayer of HEK cells once with 1×PBS buffer (provided in reagent pack) and then trypsinized for 5 min at 37° C. Added trypsin neutralizing solution (provided in reagent pack). Collected cells into tube, centrifuged cells (500×g, 5 min) and resuspended in HEK cell media. Counted cells and adjusted density to 150,000 cells/ml. Diluted cells further 1:30 with HEK cell media.
# 2. Cell Plating • Added 150 μl of cell suspension to appropriately labelled wells of a 96-well plate. Incubated plate for 48 h at 37° C. in a humidified atmosphere containing 5% CO2 for adherence of cells to wells.
# 3. […]
# 4. Cell Harvesting and Counting • Added 0.2 μCi/well of [^3H]-thymidine in 20 μl of HEK cell media to each well. Incubated plates for 18 h at 37° C. in a humidified atmosphere containing 5% CO2. Aspirated media and washed with 1×PBS. Trypsinize-cells for 30 min at 37° C. in a humidified atmosphere containing 5% CO2. Harvested cells onto filter plates using Tomtec cell harvester as per manufacturer's instructions. Added 25 μl scintillation fluid per well. Measured radioactivity using a scintillation counter. All values were normalized for background.
IC50 [1],SMILES,inhibition of proliferation of normal human epidermal keratinocytes (NHEK) [2]
> 2000 nM,"C=C1/C(=C\C=C2/CCC[C@]3(C)[C@@H]([C@H](C)CCS(=O)(=NC)c4ccccc4)CC[C@@H]23)C[C@@H](O)C[C@@H]1O (single isomer, unassigned) [I(e)]",act to inhibit the proliferation
> 2000 nM,"C[C@H](CCS(=N)(=O)c1ccccc1)[C@H]1CC[C@H]2/C(=C/C=C3C[C@@H](O)C[C@H](O)C3)CCC[C@]12C (single isomer, unassigned) [I(i), 24-Phenyl Sulfoximine 19-Nor-Vitamin-D3]",act to inhibit the proliferation
> 2000 nM,"C=C1/C(=C\C=C2/CCC[C@]3(C)[C@@H]([C@H](C)CCS(=N)(=O)c4ccccc4)CC[C@@H]23)C[C@@H](O)C[C@@H]1O (single isomer, unassigned) [I(a)]",act to inhibit the proliferation
